The test system of one assay is dengue virus type 2. The assay can be described thus: Functional assay to measure dose dependent changes in antiviral-drug inhibitory efficacy against Dengue virus type 2 New Guinea C in Vero E6 miRFP670 cells (cotreated with P-gp inhibitor, CP100356). Cells are treated with antiviral candidates that are serially diluted, following infection, cells are fixed. EC50 is reported via analysis of fluorescence intensity using high-content imager. The …. Type of assay: organism-based, Chlorocebus sabaeus, Vero C1008. The settings on record: for EC90: P-gp concentration 500 nM, P-gp inhibitor CP100356.

The subject of a further assay is Zika virus. The assay can be described thus: Functional CPE-based assay to measure dose dependent changes in antiviral-drug inhibitory efficacy against Zika virus MR766 in Vero E6 miRFP670 cells (cotreated with P-gp inhibitor, CP100356). Cells are treated with antiviral candidates that are serially diluted. EC50 is reported via analysis of MTS assay as a readout of CPE. The assay has been performed by KU Leuven. Type of assay: organism-based, Chlorocebus sabaeus, Vero C1008. The settings on record: Zika virus; for EC90: P-gp concentration 500 nM, P-gp inhibitor CP100356.

Experimental findings from ChEMBL document CHEMBL5661943, “ASAP - In vitro antiviral effect” (2024) are described below.

As for `O=C(Nc1ccc2c(c1)CNC2)c1cccc2[nH]c(C(F)(F)F)cc12`, the EC50 in the assay with dengue virus type 2 (Dengue virus, Vero C1008) came out at 11.6 µM; in the assay on Zika virus (Vero C1008), 857 nM. Moreover, the EC90 in the assay on dengue virus type 2 (Dengue virus, Vero C1008, Baseline response 0 %, Hill slope -1.333, Maximum measured 97.959 %, Maximum response 100 %, Minimum measured 43.335 %, R squared 0.826) is over 12.5 µM; with Zika virus (Vero C1008, Baseline response 0 %, EC90 CI (lower) 0.735 uM, EC90 CI (upper) 5.08 uM, Hill slope 2.705, Maximum measured 139.12 %, Maximum response 100 %, Minimum measured 13.658 %, R squared 0.773) it was 1.93 µM.

Regarding `O=C(Nc1ccc2c(c1)CNC2)c1cc(Cl)cc2cn[nH]c12`, the EC50 in the assay on dengue virus type 2 (Dengue virus, Vero C1008) is over 50 µM; with Zika virus (Vero C1008) it was 3010 nM. Further, the EC90 in the assay on dengue virus type 2 (Dengue virus, Vero C1008, Maximum measured 130.797 %, Minimum measured 96.2 %) is over 50 µM; in the assay on Zika virus (Vero C1008, Baseline response 0 %, EC90 CI (lower) 2.341 uM, EC90 CI (upper) 14.506 uM, Hill slope 3.321, Maximum measured 138.559 %, Maximum response 100 %, Minimum measured 2.928 %, R squared 0.845) it was 5.83 µM.

Regarding `O=C(Nc1ccc2c(c1)CNC2)c1cc(Cl)cc2[nH]c(-c3ccnn3C3CC3)nc12`, the EC50 is over 6.25 µM in the assay with dengue virus type 2 (Dengue virus, Vero C1008) and over 781 nM with Zika virus (Vero C1008). Also, the EC90 in the assay on dengue virus type 2 (Dengue virus, Vero C1008, Baseline response 0 %, Hill slope 11.741, Maximum measured 109.967 %, Maximum response 100 %, Minimum measured 87.357 %, R squared 0.219) was over 6.25 µM; with Zika virus (Vero C1008, Baseline response 0 %, Hill slope 2.383, Maximum measured 38.126 %, Maximum response 100 %, Minimum measured 10.566 %, R squared 0.88), over 0.781 µM.

For `O=C(NCCCn1ccnc1)[C@H](Nc1ccc2c(c1)CNC2)c1cc(Cl)cc(C2CC2)c1`, the EC50 in the assay on dengue virus type 2 (Dengue virus, Vero C1008) is over 50 µM; with Zika virus (Vero C1008), over 50000 nM. In addition, the EC90 in the assay with dengue virus type 2 (Dengue virus, Vero C1008, Baseline response 0 %, Hill slope 0.691, Maximum measured 120.843 %, Maximum response 100 %, Minimum measured 86.475 %, R squared 0.179) is over 50 µM; with Zika virus (Vero C1008, Maximum measured 4.008 %, Minimum measured -17.269 %), over 50 µM.

Regarding `Cn1cc2c(C(=O)Nc3ccc4c(c3)CNC4)cc(F)cc2n1`, the EC50 is over 50 µM in the assay on dengue virus type 2 (Dengue virus, Vero C1008) and 3020 nM in the assay on Zika virus (Vero C1008). Besides, the EC90 in the assay on dengue virus type 2 (Dengue virus, Vero C1008, Baseline response 0 %, Hill slope 0.83, Maximum measured 109.464 %, Maximum response 100 %, Minimum measured 93.167 %, R squared 0.272) is over 50 µM; in the assay with Zika virus (Vero C1008, Baseline response 0 %, EC90 CI (lower) 4.41 uM, EC90 CI (upper) 19.306 uM, Hill slope 1.966, Maximum measured 124.261 %, Maximum response 100 %, Minimum measured 18.013 %, R squared 0.888), 9.23 µM.

As for `O=C(Nc1ccc2c(c1)CNC2)c1cc(Cl)cc2cc[nH]c12`, the EC50 was 2.21 µM in the assay with dengue virus type 2 (Dengue virus, Vero C1008) and 1000 nM in the assay with Zika virus (Vero C1008). In addition, the EC90 is over 3.12 µM with dengue virus type 2 (Dengue virus, Vero C1008, Baseline response 0 %, Hill slope -2.776, Maximum measured 94.432 %, Maximum response 100 %, Minimum measured 26.957 %, R squared 0.875) and 1.91 µM with Zika virus (Vero C1008, Baseline response 0 %, EC90 CI (lower) 0.797 uM, EC90 CI (upper) 4.564 uM, Hill slope 3.408, Maximum measured 129.449 %, Maximum response 100 %, Minimum measured 8.447 %, R squared 0.85).

On to `Cn1c(=O)[nH]c2c(C(=O)Nc3ccc4c(c3)CNC4)cc(Br)cc21`, for which the EC50 in the assay on dengue virus type 2 (Dengue virus, Vero C1008) was over 50 µM; in the assay on Zika virus (Vero C1008) it was 724 nM. The EC90 in the assay with dengue virus type 2 (Dengue virus, Vero C1008, Baseline response 0 %, Hill slope -2.293, Maximum measured 105.522 %, Maximum response 100 %, Minimum measured 55.095 %, R squared 0.397) was over 50 µM; in the assay with Zika virus (Vero C1008, Baseline response 0 %, EC90 CI (lower) 0.762 uM, EC90 CI (upper) 6.925 uM, Hill slope 1.902, Maximum measured 109.696 %, Maximum response 100 %, Minimum measured 27.933 %, R squared 0.521) it was 2.3 µM.

Consider `O=C(Nc1ccc2c(c1)CNC2)c1cc(F)cc2c1CCC2`, for which the EC50 is over 6.25 µM with dengue virus type 2 (Dengue virus, Vero C1008) and 1810 nM in the assay on Zika virus (Vero C1008). Further, the EC90 with dengue virus type 2 (Dengue virus, Vero C1008, Baseline response 0 %, Hill slope -2.434, Maximum measured 106.021 %, Maximum response 100 %, Minimum measured 60.209 %, R squared 0.87) was over 6.25 µM; with Zika virus (Vero C1008, Baseline response 0 %, EC90 CI (lower) 1.329 uM, EC90 CI (upper) 15.086 uM, Hill slope 2.425, Maximum measured 145.547 %, Maximum response 100 %, Minimum measured 22.113 %, R squared 0.732) it was 4.48 µM.

As for `O=C(Nc1ccc2c(c1)CNC2)c1cccc2[nH]c(=O)[nH]c12`, the EC50 in the assay with dengue virus type 2 (Dengue virus, Vero C1008) is over 12.5 µM; with Zika virus (Vero C1008) it was over 50000 nM. In addition, the EC90 was over 12.5 µM in the assay on dengue virus type 2 (Dengue virus, Vero C1008, Baseline response 0 %, Hill slope 0.241, Maximum measured 94.031 %, Maximum response 100 %, Minimum measured 72.295 %, R squared 0.287) and over 50 µM with Zika virus (Vero C1008, Maximum measured 11.079 %, Minimum measured -6.229 %).

As for `O=C(Nc1ccc2c(c1)CNC2)c1cccc2nc(O)ccc12`, the EC50 in the assay with dengue virus type 2 (Dengue virus, Vero C1008) was over 50 µM; with Zika virus (Vero C1008), over 50000 nM. The EC90 in the assay on dengue virus type 2 (Dengue virus, Vero C1008, Maximum measured 128.112 %, Minimum measured 90.404 %) is over 50 µM; with Zika virus (Vero C1008, Maximum measured -4.519 %, Minimum measured -18.451 %), over 50 µM.

For `CCOCCNC(=O)[C@H](Nc1ccc2c(c1)CNC2)c1cc(Cl)cc2[nH]ncc12`, the EC50 with dengue virus type 2 (Dengue virus, Vero C1008) is over 50 µM; in the assay with Zika virus (Vero C1008) it was 39600 nM. Moreover, the EC90 in the assay on dengue virus type 2 (Dengue virus, Vero C1008, Maximum measured 134.278 %, Minimum measured 95.519 %) is over 50 µM; in the assay with Zika virus (Vero C1008, Baseline response 0 %, Hill slope 1.597, Maximum measured 58.987 %, Maximum response 100 %, Minimum measured -2.742 %, R squared 0.989), over 50 µM.

For `O=C1Cc2cc(C(=O)Nc3ccc4c(c3)CNC4)ccc2N1`, the EC50 was over 50 µM in the assay on dengue virus type 2 (Dengue virus, Vero C1008) and over 50000 nM in the assay with Zika virus (Vero C1008). For the same molecule, the EC90 with dengue virus type 2 (Dengue virus, Vero C1008, Maximum measured 132.031 %, Minimum measured 88.326 %) was over 50 µM; in the assay with dengue virus type 2 (Dengue virus, Vero C1008, Maximum measured 147.509 %, Minimum measured 105.326 %), over 50 µM; with dengue virus type 2 (Dengue virus, Vero C1008, Maximum measured 183.11 %, Minimum measured 101.645 %) it was over 50 µM; in the assay on Zika virus (Vero C1008, Maximum measured 9.003 %, Minimum measured -9.167 %), over 50 µM; in the assay with Zika virus (Vero C1008, Baseline response 0 %, Hill slope 1.599, Maximum measured 7.523 %, Maximum response 100 %, Minimum measured -2.208 %, R squared 0.547) it was over 50 µM.

As for `O=C(NCc1cccnc1)[C@H](Nc1ccc2c(c1)CNC2)c1cc(Cl)cc2[nH]ncc12`, the EC50 in the assay with dengue virus type 2 (Dengue virus, Vero C1008) was over 50 µM; in the assay with Zika virus (Vero C1008) it was over 50000 nM. The EC90 with dengue virus type 2 (Dengue virus, Vero C1008, Maximum measured 132.553 %, Minimum measured 89.084 %) was over 50 µM; in the assay with Zika virus (Vero C1008, Maximum measured -0.377 %, Minimum measured -17.936 %), over 50 µM.

Turning to `O=C(Nc1ccc2c(c1)CNC2)c1cc(F)cc2[nH]c(-c3ccccc3)nc12`, the EC90 with dengue virus type 2 (Dengue virus, Vero C1008, Maximum measured 101.649 %, Minimum measured 101.649 %) is over 0.391 µM; in the assay on dengue virus type 2 (Dengue virus, Vero C1008, Maximum measured 246.46 %, Minimum measured 208.361 %) it was over 6.25 µM; in the assay on Zika virus (Vero C1008, Baseline response 0 %, Hill slope 1.327, Maximum measured 69.085 %, Maximum response 100 %, Minimum measured 18.26 %, R squared 0.744), over 3.12 µM. For the same molecule, the EC50 with dengue virus type 2 (vero c1008) is over 6.25 µM; in the assay with Zika virus (Vero C1008), 2130 nM.

In the case of `O=C(Nc1cc2c(cc1Br)CNC2)c1cc(F)cc2[nH]ncc12`, the EC50 with dengue virus type 2 (Dengue virus, Vero C1008) is over 25 µM; with Zika virus (Vero C1008) it was 721 nM. Further, the EC90 in the assay on dengue virus type 2 (Dengue virus, Vero C1008, Baseline response 0 %, Hill slope -2.027, Maximum measured 102.892 %, Maximum response 100 %, Minimum measured 55.622 %, R squared 0.83) is over 25 µM; in the assay with Zika virus (Vero C1008, Baseline response 0 %, EC90 CI (lower) 0.74 uM, EC90 CI (upper) 4.973 uM, Hill slope 2.246, Maximum measured 124.778 %, Maximum response 100 %, Minimum measured 29.701 %, R squared 0.756), 1.92 µM.

As for `O=C(Nc1ccc2c(c1)CNC2)c1cc(Cl)cc2c1NCCC2`, the EC50 in the assay on dengue virus type 2 (Dengue virus, Vero C1008) is over 50 µM; in the assay on Zika virus (Vero C1008) it was over 50000 nM. For the same molecule, the EC90 with dengue virus type 2 (Dengue virus, Vero C1008, Baseline response 0 %, Hill slope 0.298, Maximum measured 134.107 %, Maximum response 100 %, Minimum measured 52.01 %, R squared 0.047) was over 50 µM; with Zika virus (Vero C1008, Maximum measured 8.781 %, Minimum measured -16.872 %), over 50 µM.
